# Patent publication US20150087673A1, “METHODS FOR USING AND BIOMARKERS FOR AMPK-ACTIVATING COMPOUNDS” (RIGEL PHARMACEUTICALS, INC., priority 2013, published 2015)
# Tested on: AMPK
# Assay: AMPK activation assay (enzyme-linked immunosorbent assay)
# Type: cell-based
# Outline: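 Activator screen performed per well-known kit methods.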
row,EC50 [nM],SMILES
1,< 500,"N#Cc1ccc(CN2CCC(NC(=O)c3ccc(C(=O)N4CCC(Oc5ccc(S(F)(F)(F)(F)F)cc5)CC4)cn3)CC2)cc1 [Compound 492, N-(1-(4-cyanobenzyl)piperidin-4-yl)-5-(4-(4-(pentafluorosulfanyl)phenoxy)piperidine-1-carbonyl)picolinamide]"
2,< 500,"N#Cc1ccc(OC2CCN(C(=O)c3ccc(C(=O)NC4CCN(Cc5ccc(F)cc5)CC4)cn3)CC2)cc1 [Compound 320, 6-(4-(4-cyanophenoxy)piperidine-1-carbonyl)-N-(1-(4-fluorobenzyl)piperidin-4-yl)nicotinamide]"
3,< 500,"O=C(NC1CCN(Cc2cc(F)cc(F)c2)CC1)c1ccc(C(=O)N2CCC(C(=O)c3ccc(F)cc3)CC2)cn1 [Compound 288, N-(1-(3,5-difluorobenzyl)piperidin-4-yl)-5-(4-(4-fluorobenzoyl)piperidine-1-carbonyl)picolinamide]"
4,< 500,"N#Cc1ccc(OC2CN(C(=O)c3ccc(C(=O)NC4CCN(Cc5cc(F)cc(F)c5)CC4)nc3)C2)cc1 [Compound 313, 5-(3-(4-cyanophenoxy)azetidine-1-carbonyl)-N-(1-(3,5-difluorobenzyl)piperidin-4-yl)picolinamide]"
5,< 500,"N#Cc1ccc(CN2CCC(NC(=O)c3ccc(C(=O)N4CCC(Cc5ccccc5)CC4)cn3)CC2)cc1 [Compound 124, 5-(4-benzylpiperidine-1-carbonyl)-N-(1-(4-cyanobenzyl)piperidin-4-yl)picolinamide]"
6,< 500,"N#Cc1ccc(CN2CCC(NC(=O)c3ccc(C(=O)N4CCC(Oc5ccc(C(=O)C6CC6)cc5)CC4)nc3)CC2)cc1 [Compound 456, N-(1-(4-cyanobenzyl)piperidin-4-yl)-6-(4-(4-(cyclopropanecarbonyl)phenoxy)piperidine-1-carbonyl)nicotinamide]"
7,< 500,"N#Cc1ccc(OC2CCN(C(=O)c3ccc(C(=O)NC4CCN(Cc5cc(F)cc(F)c5)CC4)nc3)CC2)cc1 [Compound 289, 5-(4-(4-cyanophenoxy)piperidine-1-carbonyl)-N-(1-(3,5-difluorobenzyl)piperidin-4-yl)picolinamide]"
8,< 500,"N#Cc1ccc(CN2CCC(NC(=O)c3ccc(C(=O)N4CCN(Cc5ccncc5)CC4)cn3)CC2)cc1 [Compound 103, N-(1-(4-cyanobenzyl)piperidin-4-yl)-5-(4-(pyridin-4-ylmethyl)piperazine-1-carbonyl)picolinamide]"
9,< 500,"N#Cc1ccc(CN2CCC(NC(=O)c3ccc(C(=O)N4CCC(Oc5ccc(S(=O)(=O)C(F)(F)F)cc5)CC4)nc3)CC2)cc1 [Compound 450, N-(1-(4-cyanobenzyl)piperidin-4-yl)-6-(4-(4-(trifluoromethylsulfonyl)phenoxy)piperidine-1-carbonyl)nicotinamide]"
10,< 500,"N#Cc1ccc(CN2CCC(NC(=O)c3cnc(C(=O)N4CCC(Oc5ccc(C(F)(F)F)cc5)CC4)cn3)CC2)cc1 [Compound 212, N-(1-(4-cyanobenzyl)piperidin-4-yl)-5-(4-(4-(trifluoromethyl)phenoxy)piperidine-1-carbonyl)pyrazine-2-carboxamide]"
11,< 500,"N#Cc1ccc(CN2CCC(NC(=O)c3ccc(C(=O)N4CCC(Oc5ccc(F)cc5F)CC4)nc3)CC2)cc1 [Compound 345, N-(1-(4-cyanobenzyl)piperidin-4-yl)-6-(4-(2,4-difluorophenoxy)piperidine-1-carbonyl)nicotinamide]"
12,< 500,"N#Cc1ccc(CN2CCC(NC(=O)c3ccc(C(=O)N4CCC(F)(C(=O)c5ccc(F)cc5)CC4)cn3)CC2)cc1 [Compound 68, N-(1-(4-cyanobenzyl)piperidin-4-yl)-5-(4-(4-fluoro-4-fluorobenzoyl)piperidine-1-carbonyl)picolinamide]"
13,< 500,"O=C(NC1CCN(Cc2ccc(F)cc2)CC1)c1ccc(C(=O)N2CCC(Oc3ccc(C(F)(F)F)cc3)CC2)cn1 [Compound 179, N-(1-(4-fluorobenzyl)piperidin-4-yl)-5-(4-(4-(trifluoromethyl)phenoxy)piperidine-1-carbonyl)picolinamide]"

# Second part, the molecule before the results:
row,SMILES,EC50 [nM]
1,"N#Cc1ccc(CN2CCC(NC(=O)c3ccc(C(=O)N4CCN(C(=O)c5ccc(C(=O)NC6CCN(Cc7ccc(C#N)cc7)CC6)nc5)CC4)cn3)CC2)cc1 [Compound 75, 5,5′-(piperazine-1,4-diylbis(oxomethylene))bis(N-(1-(4-cyanobenzyl)piperidin-4-yl)picolinamide)]",1000 to 5000
2,"O=C(c1ccc(-c2ccc(OCc3ccccc3)cc2)nc1)N1CCN(Cc2ccc(F)cc2)CC1 [Compound 17, (4-(4-fluorobenzyl)piperazin-1-yl)(6-(4-(benzyloxy)phenyl)pyridin-3-yl)methanone]",> 10000
3,"CC(=O)c1ccc(OC2CCN(C(=O)c3ccc(C(=O)Nc4ccc(Oc5ccc(F)cc5)nc4)cn3)CC2)cc1 [Compound 395, 6-(4-(4-acetylphenoxy)piperidine-1-carbonyl)-N-(6-(4-fluorophenoxy)pyridin-3-yl)nicotinamide]",< 500
4,"N#Cc1ccc(CN2CCC(NC(=O)c3ccc(C(=O)N4CCC(Oc5ccc(S(=O)(=O)C6CC6)cc5)CC4)nc3)CC2)cc1 [Compound 246, N-(1-(4-cyanobenzyl)piperidin-4-yl)-6-(4-(4-(cyclopropylsulfonyl)phenoxy)piperidine-1-carbonyl)nicotinamide]",< 500
5,"COc1ccc(CN2CCC(NC(=O)c3ccc(C(=O)N4CCC(C(=O)c5ccc(F)cc5)CC4)cn3)CC2)cc1 [Compound 160, 5-(4-(4-fluorobenzoyl)piperidine-1-carbonyl)-N-(1-(4-methoxybenzyl)piperidin-4-yl)picolinamide]",< 500
6,"CS(=O)(=O)c1ccc(OC2CCN(C(=O)c3ccc(C(=O)NC4CCC(Oc5ccc(C#N)cc5)CC4)cn3)CC2)cc1 (centres unmarked) [Compound 398, N-(4-(4-cyanophenoxy)cyclohexyl)-6-(4-(4-(methylsulfonyl)phenoxy)piperidine-1-carbonyl)nicotinamide]",< 500
7,"O=C(Nc1ccc(Oc2ccc(F)cc2)nc1)c1ccc(C(=O)N2CCC(Oc3cccc(NC(=O)C4CC4)c3)CC2)nc1 [Compound 433, 6-(4-(3-(cyclopropanecarboxamido)phenoxy)piperidine-1-carbonyl)-N-(6-(4-fluorophenoxy)pyridin-3-yl)nicotinamide]",< 500
8,"N#Cc1ccc(CN2CCC(NC(=O)c3ncc(C(=O)N4CCN(Cc5ccc(F)cc5)CC4)cc3C#CCNC(=O)COCCOCCOCCOCCNC(=O)CCCC[C@@H]3SC[C@@H]4NC(=O)N[C@@H]43)CC2)cc1 [Compound 159, N-(1-(4-cyanobenzyl)piperidin-4-yl)-3-(5,20-dioxo-24-((3aS,4S,6aR)-2-oxohexahydro-1H-thieno[3,4-d]imidazol-4-yl)-7,10,13,16-tetraoxa-4,19-diazatetracos-1-ynyl)-5-(4-(4-fluorobenzyl)piperazine-1-carbonyl)picolinamide]",1000 to 5000
9,O=C(c1ccc(Nc2ccc(Cc3ccccc3)cc2)nc1)N1CCN(Cc2ccc(F)cc2)CC1 [Compound 30],1000 to 5000
10,"COc1ccc(C(=O)C2CCN(C(=O)c3ccc(C(=O)NC4CCN(Cc5ccc(NC(C)=O)cc5)CC4)cn3)CC2)cc1 [Compound 401, N-(1-(4-acetamidobenzyl)piperidin-4-yl)-6-(4-(4-methoxybenzoyl)piperidine-1-carbonyl)nicotinamide]",1000 to 5000
11,"COc1ccc(CN2CCC(NC(=O)c3ccc(C(=O)N4CCC(Oc5ccc(S(C)(=O)=O)cc5)CC4)nc3)CC2)cc1 [Compound 237, N-(1-(4-methoxybenzyl)piperidin-4-yl)-6-(4-(4-(methylsulfonyl)phenoxy)piperidine-1-carbonyl)nicotinamide]",1000 to 5000
12,"O=C(Nc1ccc(Oc2ccc(F)cc2)nc1)c1cnc(C(=O)N2CCC(Oc3ccc(C(F)(F)F)cc3)CC2)cn1 [Compound 205, N-(6-(4-fluorophenoxy)pyridin-3-yl)-5-(4-(4-(trifluoromethyl)phenoxy)piperidine-1-carbonyl)pyrazine-2-carboxamide]",< 500
13,"O=C(Nc1ccc(Oc2ccc(F)cc2)nc1)c1ccc(C(=O)N2CCC(C(=O)c3ccc(N4CCCC4)cc3)CC2)nc1 [Compound 382, N-(6-(4-fluorophenoxy)pyridin-3-yl)-6-(4-(4-(pyrrolidin-1-yl)benzoyl)piperidine-1-carbonyl)nicotinamide]",< 500
14,"O=C(Nc1ccc(-c2cc[nH]c2)cc1)c1ccc(C(=O)N2CCN(Cc3ccc(F)cc3)CC2)cn1 [Compound 39, 5-(4-(4-fluorobenzyl)piperazine-1-carbonyl)-N-(4-(1H-pyrrol-3-yl)phenyl)picolinamide]",1000 to 5000
15,"CC(=O)c1ccc(Oc2ccc(NC(=O)c3ccc(C(=O)N4CCC(Oc5ccc(C(=O)N(C)C)cc5)CC4)nc3)cn2)cc1 [Compound 488, N-(6-(4-acetylphenoxy)pyridin-3-yl)-6-(4-(4-(dimethylcarbamoyl)phenoxy)piperidine-1-carbonyl)nicotinamide]",< 500
16,"COc1ccc(CN2CCC(NC(=O)c3ccc(C(=O)N4CCN(Cc5ccc(F)cc5)CC4)nc3)CC2)cc1 [Compound 327, 6-(4-(4-fluorobenzyl)piperazine-1-carbonyl)-N-(1-(4-methoxybenzyl)piperidin-4-yl) nicotinamide]",< 500
17,"N#Cc1ccc(CN2CCC(NC(=O)c3ccc(C(=O)N4C5CCC4CC(Oc4ccc(C#N)cc4)C5)cn3)CC2)cc1 [Compound 280, N-(1-(4-cyanobenzyl)piperidin-4-yl)-5-((1R,3r,5S)-3-(4-cyanophenoxy)-8-azabicyclo[3.2.1]octane-8-carbonyl)picolinamide]",< 500
18,"COc1ccc(C(=O)C2CCN(C(=O)c3ccc(C(=O)N[C@H]4CCN(Cc5ccc(C#N)cc5)C[C@@H]4F)cn3)CC2)cc1 [Compound 453, N-((3S,4S)-1-(4-cyanobenzyl)-3-fluoropiperidin-4-yl)-6-(4-(4-methoxybenzoyl)piperidine-1-carbonyl)nicotinamide]",< 500
19,"COc1cccc(CN2CCC(NC(=O)c3ccc(C(=O)N4CCC(S(=O)(=O)c5ccc(F)cc5)CC4)nc3)CC2)c1 [Compound 475, 6-(4-(4-fluorophenylsulfonyl)piperidine-1-carbonyl)-N-(1-(3-methoxybenzyl)piperidin-4-yl)nicotinamide]",1000 to 5000
